In brackets after ≈: the same amount, converted by molar mass. Activity calls are given as the source filed them. The calls are words filed in the database; no cut-off is given here.
Legend:
[1] = Fraction unbound in rat blood; format: ADME, tissue-based
[2] = Oral bioavailability in Wistar Han rat at 1 mg/kg administered via gavage by RP LC-MS/MS analysis; format: ADME, organism-based; settings: in vivo
in vitro = settings: human, pooled liver microsomes
Description: Intrinsic clearance in pooled human liver microsomes at 0.5 uM measured up to 45 mins in presence of NADPH by LC-MS/MS analysis

[3] = target: T1, Phosphatidylinositol 4,5-bisphosphate 3-kinase catalytic subunit delta isoform (Homo sapiens, UniProt O00329); assay: Inhibition of PI3Kdelta in human whole blood assessed as reduction in cytostim-stimulated IFNgamma production preincubated for 1 hr followed by cytostim stimulation and measured after 20 hrs by electrochemiluminescence assay
T1 sequence (O00329 whole entry): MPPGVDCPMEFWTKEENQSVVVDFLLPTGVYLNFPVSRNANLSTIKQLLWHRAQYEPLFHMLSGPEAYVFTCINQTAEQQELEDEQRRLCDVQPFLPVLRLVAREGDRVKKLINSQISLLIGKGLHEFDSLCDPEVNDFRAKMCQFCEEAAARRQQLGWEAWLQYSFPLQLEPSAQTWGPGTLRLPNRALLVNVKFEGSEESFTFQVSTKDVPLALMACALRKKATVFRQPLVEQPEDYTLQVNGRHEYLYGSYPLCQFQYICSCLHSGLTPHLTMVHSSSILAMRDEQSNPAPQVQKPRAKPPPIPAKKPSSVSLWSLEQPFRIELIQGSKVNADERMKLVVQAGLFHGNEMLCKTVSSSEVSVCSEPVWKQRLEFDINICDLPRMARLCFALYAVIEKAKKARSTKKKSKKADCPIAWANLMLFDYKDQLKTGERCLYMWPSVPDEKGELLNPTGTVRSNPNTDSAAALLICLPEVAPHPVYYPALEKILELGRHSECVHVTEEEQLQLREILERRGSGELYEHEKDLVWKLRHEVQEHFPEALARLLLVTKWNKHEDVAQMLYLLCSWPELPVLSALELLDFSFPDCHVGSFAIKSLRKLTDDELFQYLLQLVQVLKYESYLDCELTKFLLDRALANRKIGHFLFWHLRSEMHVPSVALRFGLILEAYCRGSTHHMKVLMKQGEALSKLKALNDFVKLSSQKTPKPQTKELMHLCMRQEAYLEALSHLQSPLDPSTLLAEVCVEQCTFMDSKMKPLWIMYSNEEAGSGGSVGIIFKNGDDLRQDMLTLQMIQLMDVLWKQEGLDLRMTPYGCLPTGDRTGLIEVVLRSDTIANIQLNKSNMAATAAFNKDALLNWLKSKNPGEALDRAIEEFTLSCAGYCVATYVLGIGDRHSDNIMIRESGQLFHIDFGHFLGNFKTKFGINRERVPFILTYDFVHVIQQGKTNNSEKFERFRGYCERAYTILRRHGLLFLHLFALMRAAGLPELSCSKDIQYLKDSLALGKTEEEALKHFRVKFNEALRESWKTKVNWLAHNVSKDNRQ

[4] = Permeability of compound in MDCK cells; format: ADME, cell-based, Canis lupus familiaris; settings: dog, read-out: permeability
[5] = Fraction unbound in human blood; format: ADME, tissue-based
[6] = Genotoxicity in Salmonella typhimurium by Ames test; format: toxicity; settings: salmonella enterica subsp. enterica serovar typhimurium
[7] = Volume of distribution at steady state in Wistar Han rat at 1 mg/kg, po administered via gavage or 1 mg/kg, iv administered as infusion for 1 hr by RP LC-MS/MS analysis; format: ADME, organism-based; settings: in vivo, read-out: Vdss
[8] = Lipophilicity, log D of compound by chromatographic method; format: physicochemical
[9] = Intrinsic clearance in Wistar Han rat liver microsomes at 0.5 uM measured up to 45 mins in presence of NADPH by LC-MS/MS analysis; format: ADME, Microsome; settings: read-out: CLH
[10] = AUC in Wistar Han rat at 1 mg/kg, po administered via gavage or 1 mg/kg, iv administered as infusion for 1 hr by RP LC-MS/MS analysis; format: ADME, organism-based; parameters: dose 1 mg/kg; settings: in vivo
[11] = target: Phosphatidylinositol 4,5-bisphosphate 3-kinase catalytic subunit gamma isoform (Homo sapiens, UniProt P48736); assay: Inhibition of recombinant human N-terminal His6-tagged full length P120gamma expressed in baculovirus infected Sf21 insect cells using PIP2 as substrate preincubated for 15 mins followed by substrate addition and measured after 60 mins by HTRF assay
[12] = Half life in Wistar Han rat at 1 mg/kg, po administered via gavage or 1 mg/kg, iv administered as infusion for 1 hr by RP LC-MS/MS analysis; format: ADME, organism-based; settings: in vivo
PI3K p110 beta/p85 alpha = PI3K p110 beta/p85 alpha (Homo sapiens, UniProt P42338); assay: Inhibition of recombinant human N-terminal His6-tagged full length P110beta/full length untagged human p85alpha expressed in baculovirus infected Sf21 insect cells using PIP2 as substrate preincubated for 15 mins followed by substrate addition and measured after 60 mins by HTRF assay
[13] = target: PI3-kinase p110-alpha/p85-alpha (Homo sapiens, UniProt P42336); assay: Inhibition of recombinant human N-terminal His6-tagged full length P110alpha/full length untagged human p85alpha expressed in baculovirus infected Sf21 insect cells using PIP2 as substrate preincubated for 15 mins followed by substrate addition and measured after 60 mins by HTRF assay
Mus musculus = assay: Antiinflammatory activity in house dust-mite-induced Balb/c mouse model of inflammation assessed as reduction in BAL IL-5 level at 0.1 to 10 mg/kg administered 7 days prior to HDM re-challenge and measured 4 hrs post-HDM re-challenge; format: functional, organism-based; settings: dose 0.1-10 mg/kg, time 7.0 day
[14] = target: PI3-kinase p110-delta/p85-alpha (Homo sapiens, UniProt O00329); assay: Inhibition of recombinant human N-terminal His6-tagged full length P110delta/full length untagged human p85alpha expressed in baculovirus infected Sf21 insect cells using PIP2 as substrate preincubated for 15 mins followed by substrate addition and measured after 60 mins by HTRF assay
[15] = Solubility in pH 6.5 FaSSIF incubated for 4 hrs using crystalline free base of sample by UV-HPLC method; format: physicochemical
Cytochrome P450 3A4 = Cytochrome P450 3A4 (Homo sapiens, UniProt P08684); assay: Time-dependent inhibition of CYP3A4 in human liver microsomes using midazolam as substrate; format: ADME
[16] = Clearance in Wistar Han rat at 1 mg/kg, po administered via gavage or 1 mg/kg, iv administered as infusion for 1 hr by RP LC-MS/MS analysis; format: ADME, organism-based; settings: in vivo
Homo sapiens = species on record: Homo sapiens; assay: Selectivity ratio of IC50 for inhibition of recombinant human N-terminal His6-tagged full length P110delta/full length untagged human p85alpha expressed in baculovirus infected Sf21 insect cells to IC50 for inhibition of PI3Kdelta in human whole blood
serum albumin = serum albumin (Homo sapiens, UniProt P02768); assay: Binding affinity to human serum albumin by HPLC analysis; format: ADME, cell-free; settings: read-out: PB (converted)
[17] = target: Voltage-gated inwardly rectifying potassium channel KCNH2 (Homo sapiens, UniProt Q12809); assay: Inhibition of human ERG
[18] = target: T1, Phosphatidylinositol 4,5-bisphosphate 3-kinase catalytic subunit delta isoform; assay: Inhibition of PI3Kdelta in human HL-60 cell extract measured after 2 hrs by kinobeads based chemoproteomic competition binding assay; format: tissue-based
[19] = target: Phosphatidylinositol 3-kinase catalytic subunit type 3 (Homo sapiens, UniProt Q8NEB9); assay: Inhibition of VPS34 in human HL-60 cell extract measured after 2 hrs by kinobeads based chemoproteomic competition binding assay; format: tissue-based
[20] = Clearance in Wistar Han rat at 1 mg/kg, iv administered as infusion for 1 hr by RP LC-MS/MS analysis; format: ADME, organism-based; settings: in vivo
[21] = Volume of distribution at steady state in Wistar Han rat at 1 mg/kg, iv administered as infusion for 1 hr by RP LC-MS/MS analysis; format: ADME, organism-based; settings: in vivo, read-out: Vdss
[22] = Half life in Wistar Han rat at 1 mg/kg, iv administered as infusion for 1 hr by RP LC-MS/MS analysis; format: ADME, organism-based; settings: in vivo
[23] = Solubility in pH 6.5 FaSSIF incubated for 4 hrs using amorphous form of sample by UV-HPLC method; format: physicochemical

Chain of PI3K p110 beta/p85 alpha (P27986 whole entry): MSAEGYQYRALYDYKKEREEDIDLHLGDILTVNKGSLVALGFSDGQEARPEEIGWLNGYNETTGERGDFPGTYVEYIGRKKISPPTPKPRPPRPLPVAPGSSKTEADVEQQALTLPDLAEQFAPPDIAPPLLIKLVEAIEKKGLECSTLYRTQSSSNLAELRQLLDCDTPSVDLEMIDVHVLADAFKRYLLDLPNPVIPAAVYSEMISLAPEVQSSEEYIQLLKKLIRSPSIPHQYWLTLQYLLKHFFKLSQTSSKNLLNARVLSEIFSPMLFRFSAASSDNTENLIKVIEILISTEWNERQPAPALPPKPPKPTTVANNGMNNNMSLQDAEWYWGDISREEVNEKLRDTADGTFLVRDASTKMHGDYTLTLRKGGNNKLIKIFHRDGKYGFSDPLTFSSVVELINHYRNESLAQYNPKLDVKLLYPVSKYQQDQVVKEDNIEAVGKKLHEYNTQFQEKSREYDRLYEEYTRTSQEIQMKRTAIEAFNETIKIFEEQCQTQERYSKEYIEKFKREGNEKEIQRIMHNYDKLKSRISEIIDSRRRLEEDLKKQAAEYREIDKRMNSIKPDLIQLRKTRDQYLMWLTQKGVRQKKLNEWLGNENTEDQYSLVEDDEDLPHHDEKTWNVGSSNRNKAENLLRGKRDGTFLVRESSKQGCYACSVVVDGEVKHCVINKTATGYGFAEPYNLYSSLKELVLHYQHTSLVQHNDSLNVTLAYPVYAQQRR
Chain of PI3K p110 beta/p85 alpha (P42338 whole entry): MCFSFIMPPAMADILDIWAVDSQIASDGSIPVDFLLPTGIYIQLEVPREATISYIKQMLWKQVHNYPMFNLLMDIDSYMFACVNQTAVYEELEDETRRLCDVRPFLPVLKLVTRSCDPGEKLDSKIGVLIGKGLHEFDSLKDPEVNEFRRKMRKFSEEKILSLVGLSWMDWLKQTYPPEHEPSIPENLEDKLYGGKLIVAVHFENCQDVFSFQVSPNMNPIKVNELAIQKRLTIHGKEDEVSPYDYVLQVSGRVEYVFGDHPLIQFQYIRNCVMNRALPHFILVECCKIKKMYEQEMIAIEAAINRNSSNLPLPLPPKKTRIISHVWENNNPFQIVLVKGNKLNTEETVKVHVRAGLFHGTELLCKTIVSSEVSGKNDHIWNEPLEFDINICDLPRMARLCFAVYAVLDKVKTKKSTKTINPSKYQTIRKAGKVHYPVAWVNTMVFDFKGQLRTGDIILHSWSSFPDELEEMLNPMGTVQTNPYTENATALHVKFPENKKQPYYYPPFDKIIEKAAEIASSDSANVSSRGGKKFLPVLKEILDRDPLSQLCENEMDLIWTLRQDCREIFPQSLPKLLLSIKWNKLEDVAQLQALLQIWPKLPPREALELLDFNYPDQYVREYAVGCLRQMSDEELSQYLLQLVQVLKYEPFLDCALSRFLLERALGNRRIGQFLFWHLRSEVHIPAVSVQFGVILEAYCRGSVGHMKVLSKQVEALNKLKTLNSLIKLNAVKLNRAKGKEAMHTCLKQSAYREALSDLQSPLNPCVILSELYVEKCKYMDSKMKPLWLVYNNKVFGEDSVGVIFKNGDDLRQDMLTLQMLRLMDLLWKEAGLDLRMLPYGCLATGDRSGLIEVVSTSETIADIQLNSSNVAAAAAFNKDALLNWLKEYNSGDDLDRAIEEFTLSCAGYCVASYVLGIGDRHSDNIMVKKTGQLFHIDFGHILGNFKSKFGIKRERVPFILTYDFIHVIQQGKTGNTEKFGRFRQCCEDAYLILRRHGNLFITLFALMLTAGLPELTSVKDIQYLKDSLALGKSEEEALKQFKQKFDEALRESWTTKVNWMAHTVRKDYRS
Chain of PI3-kinase p110-delta/p85-alpha (P27986 whole entry, one chain of several): as the sequence (P27986 whole entry) above
Chain of PI3-kinase p110-alpha/p85-alpha (P27986 whole entry): as above
Chain of PI3-kinase p110-alpha/p85-alpha (P42336 whole entry): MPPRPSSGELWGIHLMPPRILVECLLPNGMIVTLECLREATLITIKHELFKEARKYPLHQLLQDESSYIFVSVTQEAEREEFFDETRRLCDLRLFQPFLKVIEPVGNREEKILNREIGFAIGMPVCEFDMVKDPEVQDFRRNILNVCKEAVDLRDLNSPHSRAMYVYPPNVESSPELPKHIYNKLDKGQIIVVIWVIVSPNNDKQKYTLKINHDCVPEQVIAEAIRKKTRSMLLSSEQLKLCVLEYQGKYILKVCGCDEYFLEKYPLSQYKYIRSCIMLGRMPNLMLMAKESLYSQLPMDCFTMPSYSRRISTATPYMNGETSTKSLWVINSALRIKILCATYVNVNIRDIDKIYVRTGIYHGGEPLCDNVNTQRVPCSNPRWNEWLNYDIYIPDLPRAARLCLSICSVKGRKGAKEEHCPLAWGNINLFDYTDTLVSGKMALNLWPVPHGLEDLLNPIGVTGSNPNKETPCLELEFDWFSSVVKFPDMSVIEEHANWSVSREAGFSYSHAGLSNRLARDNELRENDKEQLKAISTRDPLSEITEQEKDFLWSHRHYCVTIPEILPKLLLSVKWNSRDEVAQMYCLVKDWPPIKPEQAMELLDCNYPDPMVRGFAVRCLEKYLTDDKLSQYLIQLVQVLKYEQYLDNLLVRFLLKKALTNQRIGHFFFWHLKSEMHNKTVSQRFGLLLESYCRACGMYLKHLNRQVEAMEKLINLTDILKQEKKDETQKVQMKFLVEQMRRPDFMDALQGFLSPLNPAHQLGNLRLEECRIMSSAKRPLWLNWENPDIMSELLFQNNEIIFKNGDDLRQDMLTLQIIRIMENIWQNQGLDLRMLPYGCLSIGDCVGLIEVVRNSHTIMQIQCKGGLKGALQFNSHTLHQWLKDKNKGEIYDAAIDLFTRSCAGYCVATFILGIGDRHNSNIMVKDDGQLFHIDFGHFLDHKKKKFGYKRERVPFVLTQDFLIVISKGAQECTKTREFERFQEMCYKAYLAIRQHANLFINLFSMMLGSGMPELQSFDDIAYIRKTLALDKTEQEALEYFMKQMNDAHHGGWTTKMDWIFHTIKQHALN
Chain of Phosphatidylinositol 4,5-bisphosphate 3-kinase catalytic subunit gamma isoform (P48736 whole entry, the tested form may be a part, canonical isoform): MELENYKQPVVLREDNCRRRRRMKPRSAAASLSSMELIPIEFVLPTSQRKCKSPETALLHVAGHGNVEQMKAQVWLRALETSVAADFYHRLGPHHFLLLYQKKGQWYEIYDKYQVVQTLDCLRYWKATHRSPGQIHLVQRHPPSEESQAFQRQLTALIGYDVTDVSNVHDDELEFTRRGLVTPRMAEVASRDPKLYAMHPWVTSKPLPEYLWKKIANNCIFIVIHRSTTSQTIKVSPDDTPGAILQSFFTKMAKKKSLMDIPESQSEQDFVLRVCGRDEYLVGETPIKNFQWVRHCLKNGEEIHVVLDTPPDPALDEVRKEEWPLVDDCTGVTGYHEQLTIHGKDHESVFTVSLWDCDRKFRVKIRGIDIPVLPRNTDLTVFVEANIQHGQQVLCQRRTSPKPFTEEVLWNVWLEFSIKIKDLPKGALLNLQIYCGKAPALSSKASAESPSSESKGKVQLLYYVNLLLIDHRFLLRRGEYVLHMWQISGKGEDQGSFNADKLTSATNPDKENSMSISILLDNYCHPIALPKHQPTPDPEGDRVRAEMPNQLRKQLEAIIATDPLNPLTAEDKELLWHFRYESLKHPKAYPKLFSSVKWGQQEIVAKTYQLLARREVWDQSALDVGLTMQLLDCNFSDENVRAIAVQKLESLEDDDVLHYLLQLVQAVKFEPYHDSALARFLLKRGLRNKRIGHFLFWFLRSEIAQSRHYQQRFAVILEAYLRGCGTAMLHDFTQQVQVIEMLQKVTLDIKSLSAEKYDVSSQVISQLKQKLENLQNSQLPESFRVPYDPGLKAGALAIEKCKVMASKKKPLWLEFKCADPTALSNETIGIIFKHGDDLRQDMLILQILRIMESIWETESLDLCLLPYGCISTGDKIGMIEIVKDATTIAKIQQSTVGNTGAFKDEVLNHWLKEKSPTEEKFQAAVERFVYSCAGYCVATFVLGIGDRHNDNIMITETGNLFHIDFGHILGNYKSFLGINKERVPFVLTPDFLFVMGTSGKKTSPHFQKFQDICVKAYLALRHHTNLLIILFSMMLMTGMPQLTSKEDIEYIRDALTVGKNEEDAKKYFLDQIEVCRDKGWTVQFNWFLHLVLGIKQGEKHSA
Chain of serum albumin (P02768 whole entry): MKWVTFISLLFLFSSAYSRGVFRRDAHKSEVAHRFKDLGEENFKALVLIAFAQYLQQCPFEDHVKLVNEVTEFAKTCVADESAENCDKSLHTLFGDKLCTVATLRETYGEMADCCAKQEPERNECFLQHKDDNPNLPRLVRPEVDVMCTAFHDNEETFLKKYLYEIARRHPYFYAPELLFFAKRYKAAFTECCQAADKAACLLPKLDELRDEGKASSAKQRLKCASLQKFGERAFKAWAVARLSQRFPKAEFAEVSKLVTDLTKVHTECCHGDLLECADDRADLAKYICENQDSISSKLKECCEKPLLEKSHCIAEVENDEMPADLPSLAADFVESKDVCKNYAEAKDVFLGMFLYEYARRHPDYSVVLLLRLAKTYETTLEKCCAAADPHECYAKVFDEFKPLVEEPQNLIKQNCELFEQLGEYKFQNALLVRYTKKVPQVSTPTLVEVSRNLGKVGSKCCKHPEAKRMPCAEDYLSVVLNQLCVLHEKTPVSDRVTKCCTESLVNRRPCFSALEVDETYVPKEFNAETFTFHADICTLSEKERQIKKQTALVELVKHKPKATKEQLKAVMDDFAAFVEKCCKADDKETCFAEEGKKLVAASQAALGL

Compound	CLint scaled at 0.75 h, 0.5 µM (in vitro)	IC50 [3]	chromatographic logD [8]	CLint scaled at 0.5 µM [9]	IC50 [11]	IC50 (PI3K p110 beta/p85 alpha)	IC50 [13]	IC50 [14]	Ki [14]	fraction unbound (serum albumin)	other results
COc1ncc(N2CCOCC2)cc1S(=O)(=O)Nc1ccnc(-c2ccc(CN3CCN(C(C)C)CC3)cc2F)c1	< 0.4 mL/min/kg	6.31 nM	1.9	< 0.46 mL/min/kg	2 µM	5.01 µM	1000 nM	0.794 nM	0.0126 nM		fraction unbound [1]: 0.021; bioavailability [2]: 46%; Papp [4]: 2.3 ×10⁻⁶ cm/s; fraction unbound [5]: 0.132; Activity [6]: Non-Toxic; Vd [7]: 0.5 L/kg; AUC [10]: 2020 ng·h/mL; half-life [12]: 156 min; Activity (Mus musculus): Active; solubility thermodynamic at 4 h [15]: 899 µg/mL (≈ 1540 µM); TDI (Cytochrome P450 3A4): Not Active; clearance [16]: 3.8 mL/min/kg
COc1ncc(C2=CCOCC2)cc1S(=O)(=O)Nc1ccnc(C)c1		316 nM			3.98 µM	0.316 µM	3980 nM	31.6 nM		0.21	Ratio IC50 (Homo sapiens): 10
COc1ncc(C2=CCOCC2)cc1S(=O)(=O)Nc1cncc(C#CCN2CCN(C(C)C)CC2)c1	< 0.4 mL/min/kg	50.1 nM	1.8	0.54 mL/min/kg	25.1 µM	5.01 µM	5010 nM	6.31 nM		0.17	IC50 [17]: > 50.1 µM; IC50 [18]: 1.58 nM; IC50 [19]: 100 nM; clearance [20]: 8.6 mL/min/kg; Vd [21]: 0.3 L/kg; half-life [22]: 60 min; solubility at 4 h [23]: > 1000 µg/mL
COc1ncc(C2=CCOCC2)cc1S(=O)(=O)Nc1cncc(C)c1		3980 nM			5.01 µM	0.398 µM	3160 nM	20 nM		0.09	Ratio IC50 (Homo sapiens): 100
COc1ncc(C2=CCOCC2)cc1S(=O)(=O)Nc1cncc(-c2ccc(CN3C[C@@H](C)N(C)[C@@H](C)C3)cc2)c1	3.04 mL/min/kg	1.26 nM	3.1	0.87 mL/min/kg	5.01 µM	2.51 µM	316 nM	0.501 nM	0.0158 nM		
COc1ncc(N2CCOCC2)cc1S(=O)(=O)Nc1cncc(-c2ccc(CN3CCCC3)cc2F)c1	< 0.4 mL/min/kg	20 nM	2.4	< 0.46 mL/min/kg	2.51 µM	1.58 µM	1000 nM	3.16 nM			clearance [20]: 8.8 mL/min/kg; Vd [21]: 0.6 L/kg; half-life [22]: 31.8 min
COc1ncc(C2=CCOCC2)cc1S(=O)(=O)Nc1cncc(-c2ccc(CN3CCN(C(C)C)CC3)nc2)c1	0.43 mL/min/kg	31.6 nM	1.8	< 0.46 mL/min/kg	5.01 µM	3.98 µM	1260 nM	1.26 nM	0.0251 nM		
COc1ncc(N2CCOCC2)cc1S(=O)(=O)Nc1ccnc(-c2ccc(CN3CCN(C(C)C)CC3)cc2)c1	< 0.4 mL/min/kg	12.6 nM	1.4	< 0.46 mL/min/kg	5.01 µM	10 µM	2510 nM	1.26 nM	0.0398 nM		
COc1ncc(N2CCOCC2)cc1S(=O)(=O)Nc1ccnc(-c2ccc(CN3CCN(C(C)C)CC3)c(F)c2)c1	< 0.4 mL/min/kg	3.16 nM	1.8	< 0.46 mL/min/kg	3.98 µM	7.94 µM	1580 nM	1.58 nM	0.0501 nM		
COc1ncc(N2CCOCC2)cc1S(=O)(=O)Nc1cncc(-c2ccc(CN3CCCC3)c(F)c2)c1	< 0.4 mL/min/kg	63.1 nM	2.2	< 0.46 mL/min/kg	10 µM	2.51 µM	3980 nM	12.6 nM			

Source: ChEMBL document CHEMBL4825755 (J Med Chem, 2021)
